These results are taken from US20220378923A1, “BET DEGRADER” (KYOWA KIRIN CO., LTD., priority 2019, published 2022).

The test system of assay [1] is DCAF16 KO SU-DHL-4 cells. The experiment in a line: Inhibitory effect on cell viability using SU-DHL-4 DCAF16 knock out (KO) cell line (Test Example 6). It counts as cell-based, human. To be noted: for Activity Attenuation Ratio: (SU-DHL-4 DCAF16 KO IC50)/(SU-DHL-4 WT IC50); for IC50: DCAF16 KO SU-DHL-4 cells, 72 hours, Cell Counting Kit-8, 50% inhibition of cell viability. In short, it runs like this: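 SU-DHL-4 DLBCL cells carrying lentiviral Cas9 plus DCAF16-targeting sgRNA (three KO strains; non-targeting control strain), seeded 2000 cells/well, pre-cultured 18–25 h, then given 9-step compound dilutions (0.1% DMSO final) for 72 h at 37° C. Viability read by CCK-8 colorimetric assay.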
Background: Tetrazolium dyes change colour on reduction, which living cells bring about.

The subject of assay [2] is SU-DHL-4 cells. The assay is described as follows: Inhibitory effect on cell viability in SU-DHL-4 cell line (Test Example 1). The format is cell-based, human. The conditions noted are these: 72 hours; for IC50: SU-DHL-4 (wild type) cells, calculated using the measurement results of test example 1, read-out: SU-DHL-4 WT IC50; for IC90: SU-DHL-4 cells, Cell Counting Kit-8, concentration showing 90% inhibition of cell viability, read-out: SU-DHL-4 Cell Viability Inhibition Rate IC90. In short, it runs like this: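 SU-DHL-4 cells were grown at 37° C. under 5% CO2 in RPMI1640 with 10 vol % heat-inactivated FBS plus penicillin/streptomycin, seeded and precultured for 18 to 25 hours, then exposed to test compound at 0.1 vol % DMSO for 72 hours. Viability was read with Cell Counting Kit-8 by absorbance at 450 nm.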

Each structure is given as a SMILES string. Read-outs that look alike come from different tables or passages of the source.

For orientation: IC50 means the concentration needed to halve the response being measured. What is called IC90 is the point of the concentration-response curve where the effect stands at 90%. In the case of `CCC(=O)N1c2ccccc2[C@H](Nc2ccc(C(=O)NCCCNC(=O)c3ccc(C4=N[C@@H](CC(=O)OCCCOC)c5nnc(C)n5-c5sc(C)c(C)c54)cc3)cc2)C[C@@H]1C` [Compound 13h, 3-Methoxypropyl 2-((S)-2,3,9-trimethyl-4-(4-((3-(4-(((2S,4R)-2-methyl-1-propionyl-1,2,3,4-tetrahydroquinolin-4-yl)amino)benzamide)propyl)carbamoyl)phenyl)-6H-thieno[3,2-f][1,2,4]triazolo[4,3-a][1,4]diazepin-6-yl)acetate], in assay [1], the “Activity Attenuation Ratio” value was 76 and the IC50 is 22.8 nM. Further, in assay [2], the half-maximal inhibitory concentration (IC50) was 0.3 nM and the IC90 was 0.34 nM.
The matching figures for `CCC(=O)N1c2ccccc2[C@H](Nc2ccc(NC(=O)CCCC(=O)Nc3ccc(Cn4c(C(=O)OCCN(C)C)cc5c4CCCC5=O)cc3)cc2)C[C@@H]1C` [Compound 15a, 2-(Dimethylamino)ethyl 1-(4-(5-((4-(((2S,4R)-2-methyl-1-propionyl-1,2,3,4-tetrahydroquinolin-4-yl)amino)phenyl)amino)-5-oxopentanamide)benzyl)-4-oxo-4,5,6,7-tetrahydro-1H-indole-2-carboxylate]: 225, 63 nM, 0.28 nM and 0.34 nM.
On the same counts, the results for `CCC(=O)N1c2ccccc2[C@H](Nc2ccc(C(=O)N3CC(C(=O)N[C@H]4CC[C@H](N[C@@H]5C[C@H](C)N(C(=O)CC)c6ccccc65)CC4)C3)cc2)C[C@@H]1C` [Compound 8r, 1-(4-(((2S,4R)-2-Methyl-1-propionyl-1,2,3,4-tetrahydroquinolin-4-yl)amino)benzoyl)-N-((1R,4R)-4-(((2S,4R)-2-methyl-1-propionyl-1,2,3,4-tetrahydroquinolin-4-yl)amino)cyclohexyl)azetidine-3-carboxamide] are 224, 67.4 nM, 0.3 nM and 0.47 nM.
As to `CCC(=O)N1c2ccccc2[C@H](Nc2ccc(NC(=O)CCCC(=O)Nc3ccc(N[C@@H]4C[C@H](C)N(C(=O)CC)c5ccccc54)nc3)cc2)C[C@@H]1C` [Compound 10k, N^1-(4-(((2S,4R)-2-Methyl-1-propionyl-1,2,3,4-tetrahydroquinolin-4-yl)amino)phenyl)-N^5-(6-(((2S,4R)-2-methyl-1-propionyl-1,2,3,4-tetrahydroquinolin-4-yl)amino)pyridin-3-yl)glutaramide], in assay [1], the “Activity Attenuation Ratio” value worked out at 672. Besides, the figures for the IC50 in assay [1] (Homo sapiens) and in assay [2] (Homo sapiens) were 143 nM and 0.21 nM, respectively.
For the compound `CCC(=O)N1c2ccccc2[C@H](Nc2ccc(Cc3cnc4n3CCN(C(=O)c3ccc(N[C@@H]5C[C@H](C)N(C(=O)CC)c6ccccc65)cc3)C4)cc2)C[C@@H]1C` [Compound 5q, 1-((2S,4R)-2-Methyl-4-((4-((7-(4-(((2S,4R)-2-methyl-1-propionyl-1,2,3,4-tetrahydroquinolin-4-yl)amino)benzoyl)-5,6,7,8-tetrahydroimidazo[1,2-a]pyrazin-3-yl)methyl)phenyl)amino)-3,4-dihydroquinolin-1(2H)-yl)propan-1-one], the “Activity Attenuation Ratio” value in assay [1] is listed as 7078. Moreover, the 50% inhibitory concentration (IC50) was 622 nM in assay [1] (Homo sapiens) and 0.09 nM in assay [2] (Homo sapiens).
The matching figures for `CCC(=O)N1c2ccccc2[C@H](Nc2ccc(NC(=O)COCC(=O)Nc3ccc(C4=NCc5nnc(C)n5-c5sc(C)c(C)c54)cc3)cc2)C[C@@H]1C` [Compound 14d, N-(4-(((2S,4R)-2-Methyl-1-propionyl-1,2,3,4-tetrahydroquinolin-4-yl)amino)phenyl)-2-(2-oxo-2-((4-(2,3,9-trimethyl-6H-thieno[3,2-f][1,2,4]triazolo[4,3-a][1,4]diazepin-4-yl)phenyl)amino)ethoxy)acetamide]: 96, 9.61 nM and 0.1 nM.
